Results as given in patent US8168567B2, “Thiadiazolyl oxyphenyl amidines and the use thereof as a fungicide” (Bayer Cropscience AG, priority 2007, dated 2012).

Test: logP determination (acidic, pH 2.3)
Type: physicochemical
Details: acidic, read-out: logP (acidic)
Compound `Cc1cc(Oc2nc(C(C)(C)C)ns2)c(C)cc1/N=C/N1CCCCC1` [A-3, 4-[(3-(tert-butyl)-1,2,4-thiadiazol-5-yl)oxy]-2,5-dimethyl-N-[(1E)-piperidin-1-ylmethylene]aniline] has a logP of 2.22.
With `Cc1cc(Oc2nc(C(C)(C)C)ns2)c(Cl)cc1/N=C/N1CCCCC1` [A-9, 4-[(3-(tert-butyl)-1,2,4-thiadiazol-5-yl)oxy]-5-chloro-2-methyl-N-[(1E)-piperidin-1-ylmethylene]aniline] the logP was 2.36.
Compound `CCN(C)C=Nc1cc(Cl)c(Oc2nc(C(C)(C)C)ns2)cc1C` [A-8, N′-{4-[(3-(tert-butyl)-1,2,4-thiadiazol-5-yl)oxy]-5-chloro-2-methylphenyl}-N-ethyl-N-methylimidoformamide] has a logP of 2.11.
For `Cc1cc(Oc2nc(C(C)(C)C)ns2)c(C)cc1N=CN(C)C(C)C` [A-2, N′-{4-[(3-(tert-butyl)-1,2,4-thiadiazol-5-yl)oxy]-2,5-dimethylphenyl}-N-isopropyl-N-methylimidoformamide], the logP was 2.15.

Same assay, conditions: read-out: log P (pH 2.3)
With `CC(C)(C)c1nsc(Cl)n1` [3-(tert-Butyl)-5-chloro-1,2,4-thiadiazole] the logP was 3.44.
`Cc1cc(Oc2nc(C(C)(C)C)ns2)c(C)cc1N` [4-[(3-(tert-Butyl)-1,2,4-thiadiazol-5-yl)oxy]-2,5-dimethylaniline] showed a logP of 3.29.
In the case of `CCN(C)/C=N/c1cc(C)c(Oc2nc(C(C)(C)C)ns2)cc1C` [A-1, N′-{4-[(3-(tert-butyl)-1,2,4-thiadiazol-5-yl)oxy]-2,5-dimethylphenyl}-N-ethyl-N-methylimidoformamide], the logP is reported as 2.02.
